Results: US12435083B2, “Cyclopropyl-(hetero)aryl-substituted ethylsulphonyl-pyridine derivatives” (BOEHRINGER INGELHEIM VETMEDICA GMBH, priority 2021, dated 2025)

Key:
[1] = system: adult Ctenocephalides felis fleas; experiment: Ingestion activity (flea membrane feeding, blood feeding) against adult Ctenocephalides felis; conditions: flea membrane feeding (ingestion, blood feeding) assay, EC80
[2] = system: nymphs of Dermacentor variabilis ticks; experiment: Oral rat-tick efficacy against nymphs of Dermacentor variabilis ticks; assay type: in vivo; conditions: rats, oral gavage 10 mg/kg on Day 0, tick count on Day 3
Procedure: Example 10: Comparison of Oral Rat-Tick Efficacy Data for Selected Specific Compounds of Formula (I) Against Nymphs of Dermacentor variabilis Ticks
On Day −1, rats were sedated, fitted with an Elizabethan collar, and infested with approximately 35 nymphal stage D. variabilis ticks. On Day 0, each rat was treated via oral gavage with the appropriate formulation of placebo, positive control, or test compound at the appropriate dose. On Day 3, all rats were euthanized, and ticks were removed, counted, and disposed of. In Table 2 efficacy is expressed in % mortality compared to negative controls containing compound vehicle only.

[3] = system: adult Rhipicephalus sanguineus ticks; experiment: Contact activity against adult Rhipicephalus sanguineus (coated vial, mortality at 48 h); conditions: contact assay; >100 μM = not active at the top concentration; read-out: R. sanguineus contact activity EC50
In short: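 Compound in acetone/0.02% Triton X-100 coated onto glass vial walls and cap filter paper; after drying, ten adult ticks added per vial. Held at 24° C, 95% relative humidity, 12 h light/dark cycle. Mortality scored visually at 48 hours; EC50 derived from a dose-response series.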

Row | SMILES | EC80 ([1]; read-out: C. felis membrane feeding (ingestion/blood feeding) activity EC80) [µM] | Observed efficacy (% mortality compared to negative controls) [2] [%] | EC50 [3] [µM] | C. felis membrane feeding (ingestion/blood feeding) activity EC80 [1] [µM]
1 | CCS(=O)(=O)c1cc(-c2ccc(C3(F)CC3)cc2)cnc1-c1nc2cc(C(F)(F)C(F)(F)F)nnc2n1C [compound 19] | <1 | >95 | 10 to 100 | –
2 | CCS(=O)(=O)c1cc(-c2ccc(C3CC3)cc2)cnc1-c1nc2cc(C(F)(F)C(F)(F)F)cnc2n1C [compound 44] | – | >95 | 10 to 100 | 1 to 10
